The source of these data is patent US10611740B2, “Aryl dihydro-2H-benzo[b][1,4]oxazine sulfonamide and related compounds for use as agonists of RORγ and the treatment of disease” (Lycera Corporation, priority 2015, dated 2020).

One assay addresses T1, RORγ-LBD (Homo sapiens, UniProt P51449).
T1 construct: made in house; host or cells: SF9 cells (baculovirus)
T1 sequence (P51449 269-508 limits assumed): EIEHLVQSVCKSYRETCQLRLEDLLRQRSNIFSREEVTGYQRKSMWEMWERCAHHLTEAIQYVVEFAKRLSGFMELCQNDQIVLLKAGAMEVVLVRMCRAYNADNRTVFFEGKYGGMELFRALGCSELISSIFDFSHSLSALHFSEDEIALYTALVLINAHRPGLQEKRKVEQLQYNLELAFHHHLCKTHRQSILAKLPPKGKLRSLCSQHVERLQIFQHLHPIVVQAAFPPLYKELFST
The assay can be described thus: RORγ-Ligand Binding Domain (LBD) TR-FRET Assay.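 As to TR-FRET Assay Max Response: 665/615 nm ratio relative to signal without ursolic acid or compound set at 100.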 The assay is classed as biochemical. An outline of the steps: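 TR-FRET read-out using a biotin-tagged SRC1 coactivator LXXLL peptide (200 nM final), with the antagonist ursolic acid present at 2 μM final. Receptor is His-tagged LBD expressed in SF9 cells, ~3 nM final in pH 7.0 Tris/KCl/EDTA/DTT/BSA buffer; compounds in 1% DMSO final.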

For a further assay, the target named is T2, Gal4-RORγ-LBD (Homo sapiens, UniProt P51449).
T2 construct: expressed in transfected cells; host or cells: HEK-293 cells (pcDNA3.1neo plasmid)
T2 sequence (P51449 269-508 limits assumed): T1 sequence (P51449 269-508 limits assumed)
As to the kind of experiment: Gal4-RORγ Luciferase Reporter Assay in HEK-293T Cells. The assay is classed as cell-based. The note with it: HEK-293 cells. An outline of the steps: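 Luminescence read-out (One-Glo, 10 min RT) after overnight compound exposure at 37 °C in HEK-293 cells carrying Gal4-RORγ-LBD plus a Gal4-luciferase reporter, in the presence of 2 μM ursolic acid. Max Response is the upper plateau from a 4-parameter logistic fit, normalized to untreated signal = 100.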

Where [1] appears, read: luciferase reporter, with 2 μM ursolic acid.

Each structure is given as a SMILES string. Some results are limits rather than exact numbers.

`CN(C)c1cccc(-c2ccc3c(c2)N(S(=O)(=O)c2cccc(C(F)(F)F)c2)C[C@H](CCC(=O)O)O3)n1` [Compound 4X, (S)-3-(6-(6-(dimethylamino)-pyridin-2-yl)-4-((3-(trifluoro-methyl)phenyl)sulfonyl)-3,4-dihydro-2H-benzo[b][1,4]-oxazin-2-yl)propanoic acid]: at RORγ-LBD, the EC50 was less than 500 nM and the “TR-FRET Assay Max Response” value is “**** (The symbol “****” indicates a value greater than 200)”. Also, on Gal4-RORγ-LBD (setting [1]), the EC50 is less than 500 nM and the “Gal4-RORγ Assay Max Response” value is listed as “** (The symbol “**” indicates a value in the range of greater than 90 to 150)”.

In the case of `CN(CC(=O)O)C(=O)NCC[C@H]1CN(S(=O)(=O)c2cccc(C(F)(F)F)c2)c2cc(-c3cc(F)ccc3F)ccc2O1` [Compound 23W, (S)-N-((2-(6-(2,5-difluorophenyl)-4-((3-(trifluoromethyl)phenyl)-sulfonyl)-3,4-dihydro-2H-benzo[b][1,4]oxazin-2-yl)ethyl)carbamoyl)-N-methylglycine], at RORγ-LBD, the EC50 was less than 500 nM and the “TR-FRET Assay Max Response” value is listed as “**** (The symbol “****” indicates a value greater than 200)”. On Gal4-RORγ-LBD (setting [1]), the concentration for a half-maximal effect (EC50) was less than 500 nM and the “Gal4-RORγ Assay Max Response” value is on record as “** (The symbol “**” indicates a value in the range of greater than 90 to 150)”.

Consider `O=c1[nH]nc(CC[C@H]2CN(S(=O)(=O)c3cccc(C(F)(F)F)c3)c3cc(-c4cc(F)ccc4F)ccc3O2)o1` [Compound 11, (S)-5-(2-(6-(2,5-difluorophenyl)-4-((3-(trifluoromethyl)phenyl)sulfonyl)-3,4-dihydro-2H-benzo[b][1,4]oxazin-2-yl)ethyl)-1,3,4-oxadiazol-2(3H)-one], for which, on RORγ-LBD, the half-maximal effective concentration (EC50) was less than 500 nM and the “TR-FRET Assay Max Response” value is reported as “**** (The symbol “****” indicates a value greater than 200)”. In addition, on Gal4-RORγ-LBD (setting [1]), the half-maximal effective concentration (EC50) was less than 500 nM and the “Gal4-RORγ Assay Max Response” value was “** (The symbol “**” indicates a value in the range of greater than 90 to 150)”.

As to `O=C(O)CC[C@H]1CN(S(=O)(=O)c2cccc(OC(F)F)c2)c2cc(-c3cc(F)cc(F)c3Cl)ccc2O1` [Compound 6L, (S)-3-(6-(2-chloro-3,5-difluoro-phenyl)-4-((3-(difluoromethoxy)-phenyl)sulfonyl)-3,4-dihydro-2H-benzo[b][1,4]oxazin-2-yl)propanoic acid], at RORγ-LBD, the half-maximal effective concentration (EC50) is less than 500 nM and the “TR-FRET Assay Max Response” value was “*** (The symbol “***” indicates a value in the range of greater than 150 to 200)”. Also, at Gal4-RORγ-LBD (setting [1]), the EC50 is less than 500 nM and the “Gal4-RORγ Assay Max Response” value is “** (The symbol “**” indicates a value in the range of greater than 90 to 150)”.

For the molecule `O=C(O)C1CCN(C(=O)CC[C@H]2CN(S(=O)(=O)c3cccc(C(F)(F)F)c3)c3cc(-c4cccc(C(F)(F)F)n4)cc(F)c3O2)CC1` [Compound 23E, (S)-1-(3-(8-fluoro-4-((3-(trifluoromethyl)phenyl)sulfonyl)-6-(6-(trifluoromethyl)pyridin-2-yl)-3,4-dihydro-2H-benzo[b][1,4]oxazin-2-yl)propanoyl)piperidine-4-carboxylic acid], at RORγ-LBD, the EC50 was less than 500 nM and the “TR-FRET Assay Max Response” value was “**** (The symbol “****” indicates a value greater than 200)”. Further, at Gal4-RORγ-LBD (setting [1]), the EC50 was less than 500 nM and the “Gal4-RORγ Assay Max Response” value was “** (The symbol “**” indicates a value in the range of greater than 90 to 150)”.

Turning to `COc1c(F)cc(F)cc1-c1ccc2c(c1)N(S(=O)(=O)c1cccc(C(F)(F)F)c1)C[C@H](CCC(=O)O)O2` [Compound 2BC, (S)-3-(6-(3,5-difluoro-2-methoxyphenyl)-4-((3-(trifluoromethyl)phenyl)-sulfonyl)-3,4-dihydro-2H-benzo[b][1,4]oxazin-2-yl)propanoic acid], at RORγ-LBD, the concentration giving a half-maximal response (EC50) was less than 500 nM and the “TR-FRET Assay Max Response” value is given as “**** (The symbol “****” indicates a value greater than 200)”. In addition, on Gal4-RORγ-LBD (setting [1]), the EC50 was less than 500 nM and the “Gal4-RORγ Assay Max Response” value is “*** (The symbol “***” indicates a value in the range of greater than 150 to 200)”.

For `O=C(O)CC[C@H]1CN(S(=O)(=O)c2cccc(C(F)(F)F)c2)c2cc(-c3cccc(F)c3F)ccc2O1` [Compound 1, (S)-3-(6-(2,3-difluorophenyl)-4-((3-(trifluoromethyl)phenyl)sulfonyl)-3,4-dihydro-2H-benzo[b][1,4]oxazin-2-yl)propanoic acid], at RORγ-LBD, the concentration giving a half-maximal response (EC50) is less than 500 nM and the “TR-FRET Assay Max Response” value is “*** (The symbol “***” indicates a value in the range of greater than 150 to 200)”. At Gal4-RORγ-LBD (setting [1]), the 50% effective concentration (EC50) is less than 500 nM and the “Gal4-RORγ Assay Max Response” value is reported as “*** (The symbol “***” indicates a value in the range of greater than 150 to 200)”.

Take `Cn1cc(C(=O)NC[C@H]2CN(S(=O)(=O)c3cccc(C(F)(F)F)c3)c3cc(-c4cccc(F)c4Cl)ccc3O2)cn1` [Compound 30CD, (S)-N-((6-(2-chloro-3-fluoro-phenyl)-4-((3-(trifluoromethyl)-phenyl)sulfonyl)-3,4-dihydro-2H-benzo[b][1,4]oxazin-2-yl)methyl)-1-methyl-1H-pyrazole-4-carboxamide]: on RORγ-LBD, the EC50 was less than 500 nM and the “TR-FRET Assay Max Response” value is “*** (The symbol “***” indicates a value in the range of greater than 150 to 200)”. Further, on Gal4-RORγ-LBD (2 μM ursolic acid), the concentration giving a half-maximal response (EC50) is less than 500 nM and the “Gal4-RORγ Assay Max Response” value is given as “** (The symbol “**” indicates a value in the range of greater than 90 to 150)”.

Turning to `O=C(O)CC[C@H]1CN(S(=O)(=O)c2cccc(C(F)(F)F)c2)c2cc(-c3ccnc(C(F)(F)F)c3)ccc2O1` [Compound 2AA, (S)-3-(4-((3-(trifluoromethyl)-phenyl)sulfonyl)-6-(2-(trifluoromethyl)pyridin-4-yl)-3,4-dihydro-2H-benzo[b][1,4]oxazin-2-yl)propanoic acid], on RORγ-LBD, the EC50 was less than 500 nM and the “TR-FRET Assay Max Response” value is recorded as “**** (The symbol “****” indicates a value greater than 200)”. This molecule also displayed a concentration giving a half-maximal response (EC50) on Gal4-RORγ-LBD (setting [1]) greater than 10000 nM.

For the molecule `CC(C)(O)C(=O)NCC[C@H]1CN(S(=O)(=O)c2cccc(C(F)(F)F)c2)c2cc(-c3cc(F)ccc3F)ccc2O1` [Compound 29, (S)—N-(2-(6-(2,5-difluorophenyl)-4-((3-(trifluoromethyl)phenyl)sulfonyl)-3,4-dihydro-2H-benzo[b][1,4]oxazin-2-yl)ethyl)-2-hydroxy-2-methylpropanamide], on RORγ-LBD, the EC50 was less than 500 nM and the “TR-FRET Assay Max Response” value was “**** (The symbol “****” indicates a value greater than 200)”. Further, on Gal4-RORγ-LBD (setting [1]), the EC50 was less than 500 nM and the “Gal4-RORγ Assay Max Response” value is “** (The symbol “**” indicates a value in the range of greater than 90 to 150)”.

Consider `CN(C)c1cccc(-c2ccc3c(c2)N(S(=O)(=O)c2cccc(C(F)(F)F)c2)C[C@H](CNC(=O)C(C)(C)O)O3)n1` [Compound 30H, (S)-N-((6-(6-(dimethylamino)-pyridin-2-yl)-4-((3-(trifluoromethyl)phenyl)sulfonyl)-3,4-dihydro-2H-benzo[b][1,4]oxazin-2-yl)methyl)-2-hydroxy-2-methylpropanamide], for which, at RORγ-LBD, the half-maximal effective concentration (EC50) is less than 500 nM and the “TR-FRET Assay Max Response” value is recorded as “**** (The symbol “****” indicates a value greater than 200)”. Further, on Gal4-RORγ-LBD (setting [1]), the EC50 was less than 500 nM and the “Gal4-RORγ Assay Max Response” value was “* (The symbol “*” indicates a value in the range of 25 to 90)”.
